Test results as given in article PMC2806602 (The Journal of neuroscience : the official journal of the …, 2009).
Residue numbers refer to the chain shown, from its start.

Key:
GluRδ2^Wt C811S = molecular target: T1, GluRδ2^Wt C811S (Rattus norvegicus, UniProt Q63226, C811S); assay: Two-electrode voltage-clamp recordings in Xenopus oocytes, GluRδ2^Wt C811S; format: cell-based; conditions: data not shown
T1 sequence (Q63226 24-1007 C811S): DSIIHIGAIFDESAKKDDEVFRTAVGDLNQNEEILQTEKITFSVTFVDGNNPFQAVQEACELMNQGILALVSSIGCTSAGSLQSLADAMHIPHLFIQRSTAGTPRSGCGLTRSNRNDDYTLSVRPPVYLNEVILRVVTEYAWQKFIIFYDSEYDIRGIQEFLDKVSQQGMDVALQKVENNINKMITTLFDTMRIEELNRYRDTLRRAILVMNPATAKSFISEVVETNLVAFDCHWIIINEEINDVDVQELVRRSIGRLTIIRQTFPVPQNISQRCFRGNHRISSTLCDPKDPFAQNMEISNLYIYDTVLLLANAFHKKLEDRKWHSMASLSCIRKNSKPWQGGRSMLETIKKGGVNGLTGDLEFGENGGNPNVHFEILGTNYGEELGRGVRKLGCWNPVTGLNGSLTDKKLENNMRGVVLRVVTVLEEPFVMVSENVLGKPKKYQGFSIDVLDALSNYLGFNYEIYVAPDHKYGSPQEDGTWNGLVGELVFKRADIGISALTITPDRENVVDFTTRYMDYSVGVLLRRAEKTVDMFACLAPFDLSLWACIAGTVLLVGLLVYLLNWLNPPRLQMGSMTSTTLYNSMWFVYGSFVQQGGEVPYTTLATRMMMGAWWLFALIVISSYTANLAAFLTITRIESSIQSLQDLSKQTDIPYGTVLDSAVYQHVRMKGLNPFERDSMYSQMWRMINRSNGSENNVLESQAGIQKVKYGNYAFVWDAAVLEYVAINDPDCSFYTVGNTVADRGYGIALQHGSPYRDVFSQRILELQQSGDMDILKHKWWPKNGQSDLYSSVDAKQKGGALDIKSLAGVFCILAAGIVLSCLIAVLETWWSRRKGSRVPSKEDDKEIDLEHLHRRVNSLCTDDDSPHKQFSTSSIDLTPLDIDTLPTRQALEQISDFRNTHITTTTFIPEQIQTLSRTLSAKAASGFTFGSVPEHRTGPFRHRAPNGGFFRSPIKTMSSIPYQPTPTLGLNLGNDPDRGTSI

[1] = molecular target: T2, GluRδ2^Wt P528C+L789C+C811S (Rattus norvegicus, UniProt Q63226, C811S/L789C/P528C); format: cell-based; conditions: data not shown
T2 sequence (Q63226 24-1007 P528C/L789C/C811S): T1 sequence (Q63226 24-1007 C811S) with P505C, L766C

N[C@H](CO)C(=O)O [D-serine]
response to D-serine (GluRδ2^Wt C811S): Neither the C811S mutation nor the triple P528C+L789C+C811S mutation resulted in measurable responses | response to D-serine [1]: Neither the C811S mutation nor the triple P528C+L789C+C811S mutation resulted in measurable responses
